Data as given in ChEMBL document CHEMBL3612057, “Discovery of indolizines containing triazine moiety as new leads for the development of antitumoral agents targeting mitotic events” (2015).
The source made the active and inactive calls. The calls are words filed in the database; no cut-off is given here.

How the values were obtained:
[1] = species: Ovis aries; test: Inhibition of sheep tubulin polymerization at 100 uM by fluorescence assay
[2] = tested on: SR; test: Cytotoxicity against human SR cells assessed as growth inhibition at 10 uM after 24 hrs by SRB assay; format: functional; details: read-out: GI
[3] = tested on: HOP-62; test: Cytotoxicity against human HOP62 cells assessed as growth inhibition at 10 uM after 24 hrs by SRB assay; format: functional
[4] = tested on: HOP-92; test: Cytotoxicity against human HOP92 cells assessed as growth inhibition at 10 uM after 24 hrs by SRB assay; format: functional
[5] = tested on: 786-0; test: Cytotoxicity against human 786-0 cells assessed as growth inhibition at 10 uM after 24 hrs by SRB assay; format: functional
[6] = tested on: MDA-MB-231; test: Cytotoxicity against human MDA-MB-231 cells assessed as growth inhibition at 10 uM after 24 hrs by SRB assay; format: functional; details: MDA-MB-231, 24 h, read-out: GI
[7] = tested on: OVCAR-8; test: Cytotoxicity against human OVCAR8 cells assessed as growth inhibition at 10 uM after 24 hrs by SRB assay; format: functional; details: OVCAR-8, 24 h, read-out: GI
[8] = tested on: HCT-116; test: Cytotoxicity against human HCT116 cells assessed as growth inhibition at 10 uM after 24 hrs by SRB assay; format: functional
[9] = tested on: SK-MEL-28; test: Cytotoxicity against human SK-MEL-28 cells assessed as growth inhibition at 10 uM after 24 hrs by SRB assay; format: functional
[10] = tested on: SK-MEL-5; test: Cytotoxicity against human SK-MEL-5 cells assessed as growth inhibition at 10 uM after 24 hrs by SRB assay; format: functional
[11] = tested on: NCI-H226; test: Cytotoxicity against human NCI-H226 cells assessed as growth inhibition at 10 uM after 24 hrs by SRB assay; format: functional
[12] = tested on: RPMI-8226; test: Cytotoxicity against human RPMI8226 cells assessed as growth inhibition at 10 uM after 24 hrs by SRB assay; format: functional
[13] = tested on: SF-295; test: Cytotoxicity against human SF295 cells assessed as growth inhibition at 10 uM after 24 hrs by SRB assay; format: functional; details: SF-295, 24 h, read-out: GI
[14] = tested on: CCRF-CEM; test: Cytotoxicity against human CCRF-CEM cells assessed as growth inhibition at 10 uM after 24 hrs by SRB assay; format: functional
[15] = Cytotoxicity against human Hs578T cells assessed as growth inhibition at 10 uM after 24 hrs by SRB assay; format: functional; details: Hs-578T, read-out: GI
[16] = tested on: SNB-75; test: Cytotoxicity against human SNB75 cells assessed as growth inhibition at 10 uM after 24 hrs by SRB assay; format: functional; details: SNB-75, 24 h, read-out: GI
[17] = tested on: UACC-257; test: Cytotoxicity against human UACC257 cells assessed as growth inhibition at 10 uM after 24 hrs by SRB assay; format: functional
[18] = tested on: Malme-3M; test: Cytotoxicity against human MALME-3M cells assessed as growth inhibition at 10 uM after 24 hrs by SRB assay; format: functional
[19] = tested on: OVCAR-4; test: Cytotoxicity against human OVCAR4 cells assessed as growth inhibition at 10 uM after 24 hrs by SRB assay; format: functional
[20] = tested on: U-251; test: Cytotoxicity against human U251 cells assessed as growth inhibition at 10 uM after 24 hrs by SRB assay; format: functional
[21] = tested on: NCI-H460; test: Cytotoxicity against human NCI-H460 cells assessed as growth inhibition at 10 uM after 24 hrs by SRB assay; format: functional
[22] = tested on: MCF7; test: Cytotoxicity against human MCF7 cells assessed as growth inhibition at 10 uM after 24 hrs by SRB assay; format: functional; details: MCF7, 24 h, read-out: GI
[23] = tested on: UACC-62; test: Cytotoxicity against human UACC62 cells assessed as growth inhibition at 10 uM after 24 hrs by SRB assay; format: functional; details: UACC-62, 24 h, read-out: GI
[24] = tested on: PC-3; test: Cytotoxicity against human PC3 cells assessed as growth inhibition at 10 uM after 24 hrs by SRB assay; format: functional; details: PC-3, 24 h, read-out: GI
[25] = tested on: TK-10; test: Cytotoxicity against human TK10 cells assessed as growth inhibition at 10 uM after 24 hrs by SRB assay; format: functional
[26] = tested on: OVCAR-3; test: Cytotoxicity against human OVCAR3 cells assessed as growth inhibition at 10 uM after 24 hrs by SRB assay; format: functional
[27] = tested on: SK-OV-3; test: Cytotoxicity against human SKOV3 cells assessed as growth inhibition at 10 uM after 24 hrs by SRB assay; format: functional
[28] = tested on: CAKI-1; test: Cytotoxicity against human CAKI-1 cells assessed as growth inhibition at 10 uM after 24 hrs by SRB assay; format: functional; details: CAKI-1, 24 h, read-out: GI
[29] = tested on: MDA-MB-435; test: Cytotoxicity against human MDA-MB-435 cells assessed as growth inhibition at 10 uM after 24 hrs by SRB assay; format: functional
[30] = tested on: HL-60(TB); test: Cytotoxicity against human HL-60(TB) cells assessed as growth inhibition at 10 uM after 24 hrs by SRB assay; format: functional
[31] = tested on: T47D; test: Cytotoxicity against human T47D cells assessed as growth inhibition at 10 uM after 24 hrs by SRB assay; format: functional; details: read-out: GI
[32] = tested on: A549; test: Cytotoxicity against human A549 cells assessed as growth inhibition at 10 uM after 24 hrs by SRB assay; format: functional; details: A549, 24 h, read-out: GI
[33] = tested on: SF-539; test: Cytotoxicity against human SF539 cells assessed as growth inhibition at 10 uM after 24 hrs by SRB assay; format: functional
[34] = tested on: NCI/ADR-RES; test: Cytotoxicity against human NCI/ADR-RES cells assessed as growth inhibition at 10 uM after 24 hrs by SRB assay; format: functional; details: read-out: GI
[35] = tested on: ACHN; test: Cytotoxicity against human ACHN cells assessed as growth inhibition at 10 uM after 24 hrs by SRB assay; format: functional; details: read-out: GI
[36] = tested on: K562; test: Cytotoxicity against human K562 cells assessed as growth inhibition at 10 uM after 24 hrs by SRB assay; format: functional
[37] = tested on: RXF 393; test: Cytotoxicity against human RXF393 cells assessed as growth inhibition at 10 uM after 24 hrs by SRB assay; format: functional; details: RXF 393, 24 h, read-out: GI
[38] = tested on: NCI-H522; test: Cytotoxicity against human NCI-H522 cells assessed as growth inhibition at 10 uM after 24 hrs by SRB assay; format: functional; details: NCI-H522, 24 h, read-out: GI

| Structure (SMILES) | inhibition [1] | inhibition of growth at 10 µM [2] [%] | growth inhibition (GI) [4] | inhibition of growth at 10 µM [6] [%] | inhibition of growth at 10 µM [7] [%] | growth inhibition (GI) [9] | inhibition of growth at 10 µM [13] [%] | inhibition of growth at 10 µM [15] [%] | inhibition of growth at 10 µM [16] [%] | growth inhibition (GI) [17] | growth inhibition (GI) [18] | inhibition of growth at 10 µM [22] [%] | inhibition of growth at 10 µM [23] [%] | inhibition of growth at 10 µM [24] [%] | inhibition of growth at 10 µM [28] [%] | growth inhibition (GI) [29] | growth inhibition (GI) [30] | inhibition of growth at 10 µM [31] [%] | inhibition of growth at 10 µM [32] [%] | inhibition of growth at 10 µM [34] [%] | other results |
| --- | --- | --- | --- | --- | --- | --- | --- | --- | --- | --- | --- | --- | --- | --- | --- | --- | --- | --- | --- | --- | --- |
| COc1ccc(C(=O)c2cc(-c3nc(OC)nc(OC)n3)c3ccccn23)cc1 | inactive | 19 | inactive | 50 | 16 | inactive | 47 | 25 | -17 | inactive | inactive | 13 | 11 | 18 | 26 | inactive | inactive | 17 | 21 | 19 | inhibition of growth at 10 µM ([3]; HOP-62, 24 h, read-out: GI): 97%; inhibition of growth at 10 µM ([5]; 786-0, 24 h, read-out: GI): 27%; inhibition of growth at 10 µM ([8]; HCT-116, 24 h, read-out: GI): 36%; growth inhibition (GI) [10]: inactive; inhibition of growth at 10 µM ([11]; NCI-H226, 24 h, read-out: GI): 12%; growth inhibition (GI) [12]: inactive; growth inhibition (GI) [14]: inactive; growth inhibition (GI) [19]: inactive; inhibition of growth at 10 µM ([20]; U-251, 24 h, read-out: GI): 56%; growth inhibition (GI) [21]: inactive; inhibition of growth at 10 µM ([25]; TK-10, 24 h, read-out: GI): 18%; growth inhibition (GI) [26]: inactive; inhibition of growth at 10 µM ([27]; SK-OV-3, 24 h, read-out: GI): 54%; inhibition of growth at 10 µM ([33]; SF-539, 24 h, read-out: GI): 32%; inhibition of growth at 10 µM [35]: 54%; growth inhibition (GI) [36]: inactive; inhibition of growth at 10 µM [37]: 59%; inhibition of growth at 10 µM [38]: 60% |
| COc1nc(OC)nc(-c2cc(C(=O)c3cc(OC)c(OC)c(OC)c3)n3c(-c4ccccc4)cccc23)n1 | inactive | 29 | inactive | 23 | 41 | inactive | 40 | 14 | 23 | inactive | inactive | 22 | 39 | 37 | 43 | inactive | inactive | 32 | 28 | 38 | growth inhibition (GI) [3]: inactive; growth inhibition (GI) [5]: inactive; growth inhibition (GI) [8]: inactive; inhibition of growth at 10 µM ([10]; SK-MEL-5, 24 h, read-out: GI): 67%; growth inhibition (GI) [11]: inactive; inhibition of growth at 10 µM ([12]; RPMI-8226, 24 h, read-out: GI): 52%; inhibition of growth at 10 µM ([14]; read-out: GI): 62%; inhibition of growth at 10 µM ([19]; OVCAR-4, 24 h, read-out: GI): 18%; growth inhibition (GI) [20]: inactive; inhibition of growth at 10 µM ([21]; NCI-H460, 24 h, read-out: GI): 14%; growth inhibition (GI) [25]: inactive; inhibition of growth at 10 µM ([26]; OVCAR-3, 24 h, read-out: GI): 28%; growth inhibition (GI) [27]: inactive; growth inhibition (GI) [33]: inactive; inhibition of growth at 10 µM [35]: 30%; inhibition of growth at 10 µM ([36]; K562, 24 h, read-out: GI): 29%; inhibition of growth at 10 µM [37]: 15%; inhibition of growth at 10 µM [38]: 11% |
